The NIST ThermoML archive (doi:10.1016/j.tca.2015.01.012)
“And” between values parts separate entries of the source, which are not always exact repeats. Equal values may be shown once. ± gives the expanded uncertainty stated by the source.

Assay: molar heat capacity at constant pressure
Conditions: 101.33 kPa, Crystal, Small (less than 1 g) adiabatic calorimetry

O=C(O)c1cccnc1 [3-carboxylpyridine]
Conditions | molar heat capacity at constant pressure
1 K | 0.0015 J/K/mol
2 K | 0.0121 ± 0.016 J/K/mol
3 K | 0.0409 ± 0.016 J/K/mol
4 K | 0.0968 ± 0.017 J/K/mol
5 K | 0.1891 ± 0.018 J/K/mol
5.3 K | 0.2521 ± 0.02 J/K/mol
5.53 K | 0.2833 ± 0.021 J/K/mol
5.71 K | 0.3119 ± 0.022 J/K/mol
5.9 K | 0.3323 ± 0.023 J/K/mol
6 K | 0.3359 ± 0.023 J/K/mol
6.07 K | 0.3625 ± 0.024 J/K/mol
6.23 K | 0.3927 ± 0.025 J/K/mol
6.39 K | 0.3921 ± 0.025 J/K/mol
6.55 K | 0.4232 ± 0.026 J/K/mol
6.7 K | 0.4579 ± 0.027 J/K/mol
6.86 K | 0.5025 ± 0.029 J/K/mol
7 K | 0.5397 ± 0.03 J/K/mol
7.03 K | 0.5557 ± 0.031 J/K/mol
7.19 K | 0.5983 ± 0.032 J/K/mol
7.36 K | 0.6211 ± 0.033 J/K/mol
7.52 K | 0.6706 ± 0.035 J/K/mol
7.69 K | 0.6993 ± 0.036 J/K/mol
7.84 K | 0.7188 ± 0.037 J/K/mol
8 K | 0.7924 ± 0.04 J/K/mol and 0.8151 ± 0.041 J/K/mol
8.17 K | 0.8389 ± 0.042 J/K/mol
8.34 K | 0.8744 ± 0.043 J/K/mol
8.51 K | 0.9394 ± 0.046 J/K/mol
8.68 K | 1.001 ± 0.048 J/K/mol
8.86 K | 1.063 ± 0.051 J/K/mol
9 K | 1.099 ± 0.052 J/K/mol
9.03 K | 1.093 ± 0.052 J/K/mol
9.21 K | 1.135 ± 0.053 J/K/mol
9.38 K | 1.246 ± 0.058 J/K/mol
9.56 K | 1.315 ± 0.061 J/K/mol
9.73 K | 1.428 ± 0.065 J/K/mol
9.92 K | 1.479 ± 0.067 J/K/mol
10 K | 1.48 ± 0.067 J/K/mol
10.17 K | 1.542 ± 0.07 J/K/mol
10.5 K | 1.674 ± 0.075 J/K/mol
10.82 K | 1.86 ± 0.083 J/K/mol
11.15 K | 2.012 ± 0.089 J/K/mol
11.48 K | 2.15 ± 0.094 J/K/mol
11.83 K | 2.356 ± 0.1 J/K/mol
12.19 K | 2.553 ± 0.11 J/K/mol
12.55 K | 2.742 ± 0.12 J/K/mol
12.92 K | 2.969 ± 0.13 J/K/mol
13.29 K | 3.19 ± 0.14 J/K/mol
13.67 K | 3.425 ± 0.15 J/K/mol
14.06 K | 3.628 ± 0.15 J/K/mol
14.45 K | 3.87 ± 0.16 J/K/mol
14.84 K | 4.121 ± 0.17 J/K/mol
15 K | 4.221 ± 0.18 J/K/mol
15.23 K | 4.365 ± 0.18 J/K/mol
15.63 K | 4.629 ± 0.2 J/K/mol
16.04 K | 4.894 ± 0.21 J/K/mol
16.44 K | 5.19 ± 0.22 J/K/mol
16.85 K | 5.494 ± 0.23 J/K/mol
17.27 K | 5.794 ± 0.24 J/K/mol
17.67 K | 6.094 ± 0.25 J/K/mol
18.09 K | 6.421 ± 0.27 J/K/mol
18.52 K | 6.77 ± 0.28 J/K/mol
18.95 K | 7.125 ± 0.3 J/K/mol
19.38 K | 7.466 ± 0.31 J/K/mol
19.82 K | 7.809 ± 0.32 J/K/mol
20 K | 7.998 ± 0.33 J/K/mol
20.68 K | 8.601 ± 0.12 J/K/mol
22 K | 9.701 ± 0.13 J/K/mol
23.36 K | 10.88 ± 0.15 J/K/mol
24.74 K | 12.09 ± 0.16 J/K/mol
25 K | 12.34 ± 0.16 J/K/mol
26.14 K | 13.4 ± 0.17 J/K/mol
27.57 K | 14.79 ± 0.18 J/K/mol
29.02 K | 16.15 ± 0.2 J/K/mol
30 K | 17.11 ± 0.22 J/K/mol
30.49 K | 17.6 ± 0.22 J/K/mol
31.97 K | 18.99 ± 0.24 J/K/mol
33.48 K | 20.37 ± 0.25 J/K/mol
34.99 K | 21.77 ± 0.26 J/K/mol
35 K | 21.76 ± 0.26 J/K/mol
36.53 K | 23.11 ± 0.28 J/K/mol
38.07 K | 24.44 ± 0.29 J/K/mol
39.63 K | 25.75 ± 0.3 J/K/mol
40 K | 26.08 ± 0.31 J/K/mol
41.2 K | 27.05 ± 0.2 J/K/mol
42.78 K | 28.38 ± 0.21 J/K/mol
44.36 K | 29.6 ± 0.21 J/K/mol
45 K | 30.14 ± 0.22 J/K/mol
45.95 K | 30.92 ± 0.22 J/K/mol
47.56 K | 32.14 ± 0.23 J/K/mol
49.17 K | 33.43 ± 0.23 J/K/mol
50 K | 33.99 ± 0.23 J/K/mol
50.79 K | 34.59 ± 0.24 J/K/mol
52.41 K | 35.8 ± 0.24 J/K/mol
54.04 K | 36.96 ± 0.25 J/K/mol
55.68 K | 38.11 ± 0.26 J/K/mol
57.33 K | 39.19 ± 0.26 J/K/mol
58.97 K | 40.29 ± 0.27 J/K/mol
60 K | 40.99 ± 0.27 J/K/mol
60.63 K | 41.38 ± 0.27 J/K/mol
62.28 K | 42.42 ± 0.28 J/K/mol
63.94 K | 43.46 ± 0.28 J/K/mol
65.61 K | 44.41 ± 0.29 J/K/mol
67.28 K | 45.36 ± 0.29 J/K/mol
68.95 K | 46.38 ± 0.3 J/K/mol
70 K | 47 ± 0.3 J/K/mol
70.62 K | 47.37 ± 0.3 J/K/mol
72.71 K | 48.52 ± 0.31 J/K/mol
75.22 K | 49.8 ± 0.32 J/K/mol
77.73 K | 51.14 ± 0.32 J/K/mol
80 K | 52.23 ± 0.33 J/K/mol
80.25 K | 52.35 ± 0.33 J/K/mol
80.98 K | 52.79 ± 0.33 J/K/mol
82.78 K | 53.53 ± 0.34 J/K/mol
84.21 K | 54.31 ± 0.34 J/K/mol
85.31 K | 54.74 ± 0.34 J/K/mol
86.73 K | 55.5 ± 0.35 J/K/mol
87.85 K | 55.91 ± 0.35 J/K/mol
89.25 K | 56.68 ± 0.35 J/K/mol
90 K | 56.95 ± 0.38 J/K/mol
90.39 K | 57.08 ± 0.38 J/K/mol
91.78 K | 57.81 ± 0.38 J/K/mol
94.31 K | 59 ± 0.39 J/K/mol
96.84 K | 60.11 ± 0.39 J/K/mol
99.38 K | 61.16 ± 0.4 J/K/mol
100 K | 61.37 ± 0.4 J/K/mol
101.92 K | 62.18 ± 0.4 J/K/mol
104.47 K | 63.23 ± 0.41 J/K/mol
107.02 K | 64.34 ± 0.41 J/K/mol
109.57 K | 65.35 ± 0.42 J/K/mol
110 K | 65.59 ± 0.42 J/K/mol
112.12 K | 66.36 ± 0.42 J/K/mol
114.68 K | 67.47 ± 0.43 J/K/mol
117.24 K | 68.52 ± 0.43 J/K/mol
119.81 K | 69.55 ± 0.44 J/K/mol
120 K | 69.67 ± 0.44 J/K/mol
122.39 K | 70.55 ± 0.44 J/K/mol
124.96 K | 71.54 ± 0.45 J/K/mol
127.53 K | 72.56 ± 0.45 J/K/mol
130 K | 73.64 ± 0.46 J/K/mol
130.1 K | 73.62 ± 0.46 J/K/mol
132.68 K | 74.7 ± 0.46 J/K/mol
135.26 K | 75.71 ± 0.47 J/K/mol
137.83 K | 76.72 ± 0.47 J/K/mol
140 K | 77.53 ± 0.48 J/K/mol
140.41 K | 77.7 ± 0.48 J/K/mol
142.99 K | 78.8 ± 0.48 J/K/mol
145.58 K | 79.79 ± 0.49 J/K/mol
148.16 K | 80.74 ± 0.49 J/K/mol
150 K | 81.39 ± 0.49 J/K/mol
150.75 K | 81.72 ± 0.5 J/K/mol
153.33 K | 82.67 ± 0.5 J/K/mol
155.92 K | 83.7 ± 0.51 J/K/mol
158.51 K | 84.71 ± 0.51 J/K/mol
160 K | 85.26 ± 0.51 J/K/mol
161.1 K | 85.73 ± 0.51 J/K/mol
163.71 K | 86.79 ± 0.52 J/K/mol
166.31 K | 87.79 ± 0.52 J/K/mol
168.9 K | 88.81 ± 0.53 J/K/mol
170 K | 89.19 ± 0.53 J/K/mol
171.49 K | 89.87 ± 0.53 J/K/mol
174.09 K | 90.88 ± 0.54 J/K/mol
176.68 K | 91.97 ± 0.54 J/K/mol
179.28 K | 92.85 ± 0.55 J/K/mol
180 K | 93.23 ± 0.55 J/K/mol
181.87 K | 93.96 ± 0.55 J/K/mol
184.47 K | 95.03 ± 0.56 J/K/mol
187.07 K | 96.11 ± 0.56 J/K/mol
189.66 K | 97.14 ± 0.57 J/K/mol
190 K | 97.4 ± 0.57 J/K/mol
192.26 K | 98.33 ± 0.58 J/K/mol
194.86 K | 99.43 ± 0.58 J/K/mol
197.45 K | 100.6 ± 0.6 J/K/mol
200 K | 101.7 ± 0.6 J/K/mol
200.05 K | 101.7 ± 0.6 J/K/mol
202.65 K | 102.8 ± 0.6 J/K/mol
205.28 K | 104.1 ± 0.6 J/K/mol
207.88 K | 105.2 ± 0.6 J/K/mol
210 K | 106.3 ± 0.6 J/K/mol
210.48 K | 106.4 ± 0.6 J/K/mol
213.09 K | 107.6 ± 0.6 J/K/mol
215.69 K | 109 ± 0.6 J/K/mol
218.3 K | 110 ± 0.6 J/K/mol
220 K | 110.9 ± 0.6 J/K/mol
220.91 K | 111.3 ± 0.6 J/K/mol
223.52 K | 112.6 ± 0.6 J/K/mol
226.13 K | 113.8 ± 0.7 J/K/mol
228.74 K | 115.2 ± 0.7 J/K/mol
230 K | 115.8 ± 0.7 J/K/mol
231.36 K | 116.7 ± 0.7 J/K/mol
233.98 K | 117.7 ± 0.7 J/K/mol
236.59 K | 119.1 ± 0.7 J/K/mol
239.21 K | 120.4 ± 0.7 J/K/mol
240 K | 120.8 ± 0.7 J/K/mol
241.83 K | 121.8 ± 0.7 J/K/mol
244.45 K | 123.1 ± 0.7 J/K/mol
247.11 K | 124.5 ± 0.7 J/K/mol
249.74 K | 125.8 ± 0.7 J/K/mol
250 K | 125.8 ± 0.7 J/K/mol
252.36 K | 127.1 ± 0.7 J/K/mol
254.98 K | 128.5 ± 0.7 J/K/mol
257.61 K | 129.8 ± 0.7 J/K/mol
260 K | 131 ± 0.7 J/K/mol
260.24 K | 131.1 ± 0.7 J/K/mol
262.86 K | 132.5 ± 0.7 J/K/mol
265.49 K | 134 ± 0.7 J/K/mol
268.12 K | 135.3 ± 0.8 J/K/mol
270 K | 136.3 ± 0.8 J/K/mol
270.75 K | 136.7 ± 0.8 J/K/mol
273.15 K | 137.9 ± 0.8 J/K/mol
273.38 K | 138.2 ± 0.8 J/K/mol
276.01 K | 139.3 ± 0.8 J/K/mol
278.63 K | 140.8 ± 0.8 J/K/mol
280 K | 141.6 ± 0.8 J/K/mol
281.26 K | 142.3 ± 0.8 J/K/mol
283.88 K | 143.5 ± 0.8 J/K/mol
286.5 K | 144.8 ± 0.8 J/K/mol
289.15 K | 146.5 ± 0.8 J/K/mol
290 K | 146.9 ± 0.8 J/K/mol
291.77 K | 147.8 ± 0.8 J/K/mol
294.38 K | 149.3 ± 0.8 J/K/mol
296.99 K | 150.7 ± 0.8 J/K/mol
298.15 K | 151.3 ± 0.8 J/K/mol
299.59 K | 152.1 ± 0.8 J/K/mol
300 K | 152.3 ± 0.8 J/K/mol
302.64 K | 153.7 ± 0.8 J/K/mol
306.07 K | 155.5 ± 0.9 J/K/mol
309.49 K | 157.1 ± 0.9 J/K/mol
310 K | 157.7 ± 0.9 J/K/mol
312.9 K | 159 ± 0.9 J/K/mol
316.3 K | 161.2 ± 0.9 J/K/mol
319.71 K | 162.9 ± 0.9 J/K/mol
320 K | 163.1 ± 0.9 J/K/mol
323.11 K | 164.8 ± 0.9 J/K/mol
326.5 K | 166.8 ± 0.9 J/K/mol
329.88 K | 168.6 ± 0.9 J/K/mol
330 K | 168.5 ± 0.9 J/K/mol
333.26 K | 170.6 ± 0.9 J/K/mol
336.64 K | 172.4 ± 0.9 J/K/mol
340 K | 174 ± 0.9 J/K/mol
343.36 K | 175.7 ± 1 J/K/mol
346 K | 177.3 ± 1 J/K/mol
346.71 K | 177.4 ± 1 J/K/mol
